The nature of series [1]: Solubility comparison of the fumarate salt and free base in water. Conditions: thermodynamic from solid; pure water, stirred overnight, filtered, HPLC. It counts as physicochemical. An excerpt: Test sample: compound represented by formula (II) (free base) prepared by comparative experiment 2 and product prepared by embodiment 1 (compound represented by formula (I));
The tested sample was weighted and added into pure water, then stirred by a magnetic stirrer overnight, and then filtered and diluted to a certain volume for sample injection;
HPLC chromatographic conditions: acetonitrile-0.1% aqueous trifluoroacetic acid (50:50) used as mobile phase, detection wavelength 264 nm, injection volume 10 μL, flow rate 1.0 mL/min.

Series [2] in a line: Stability investigation of crystal form I (XRPD, long-term placement). It counts as physicochemical. Conditions: long-term 25° C., 60% RH, dark, sealed, sampling time 5 days. As for the experimental part:
The crystal form I sample prepared by embodiment 2 was placed in the dark, sealed and placed flat, and the stability of the sample was investigated long-term (25° C., 60% RH), sampling time was 5 days, and XRPD was used to detect whether the crystal form changed.

The structures appear in SMILES notation.

Consider two compounds from patent US11014914B2, “Opioid receptor (MOR) agonist salt, fumarate salt crystal form I thereof and preparation method thereof” (Jiangsu Hengrui Medicine Co., Ltd., priority 2017, dated 2021).

As for `CCO[C@H]1CC[C@H](NCC[C@@]2(c3ccccn3)CCOC3(CCCC3)C2)c2ccccc21` [Free base, (1S,4S)-4-ethoxy-N-(2-((R)-9-(pyridin-2-yl)-6-oxaspiro[4.5]deca-9-yl)ethyl)-1,2,3,4-tetrahydronaphthalen-1-amine], the solubility in series [1] is 0.0022 mg/mL. With `CCO[C@H]1CC[C@H](NCC[C@@]2(c3ccccn3)CCOC3(CCCC3)C2)c2ccccc21.O=C(O)/C=C/C(=O)O` [Compound represented by formula (I), (1S,4S)-4-ethoxy-N-(2-((R)-9-(pyridin-2-yl)-6-oxaspiro[4.5]deca-9-yl)ethyl)-1,2,3,4-tetrahydronaphthalen-1-amine fumarate salt], the “XRPD peak pattern (crystal form change)” value in series [2] was “remained unchanged”. Besides, in series [1], the solubility stood at 31.3 mg/mL.

One may read the solubility as how much of the substance goes into solution per volume.
